Measurements from patent US20070092527A1, “Proton-sensing g-protein coupled receptors and dna sequences thereof” (NOVARTIS AG, priority 2003, published 2007).

Assays:
[1] = test system: MG63 human osteosarcoma cells; test: IP formation in MG63 human osteosarcoma cells (endogenous OGR1 mRNA); assay type: cell-based
[2] = test system: thrombin-stimulated IP formation (endogenous receptors in CCL39 cells); test: Thrombin-stimulated IP formation in CCL39 cells; assay type: cell-based, hamster; conditions: for Effect on thrombin-stimulated IP formation: control CCL39 cells
OGR1 [3] = target: T1, OGR1 (Homo sapiens, UniProt Q15743); test: Inositol phosphate (IP) formation assay, cells expressing OGR1; assay type: cell-based; conditions: for Inhibition of OGR1-dependent IP formation: stimulated at pH 6.9, micromolar concentrations
T1 construct: His; expressed in transfected cells
Target sequence in this assay (Q15743 whole entry): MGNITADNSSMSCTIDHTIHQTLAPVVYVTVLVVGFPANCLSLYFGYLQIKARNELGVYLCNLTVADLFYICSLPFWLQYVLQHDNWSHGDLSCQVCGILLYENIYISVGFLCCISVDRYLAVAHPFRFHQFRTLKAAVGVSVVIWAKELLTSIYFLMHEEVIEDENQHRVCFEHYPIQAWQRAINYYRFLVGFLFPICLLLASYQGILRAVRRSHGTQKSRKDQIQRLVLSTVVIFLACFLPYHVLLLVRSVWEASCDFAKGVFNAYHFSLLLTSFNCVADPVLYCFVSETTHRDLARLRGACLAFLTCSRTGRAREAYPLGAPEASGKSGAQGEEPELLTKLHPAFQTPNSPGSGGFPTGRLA

Human TDAG8 [4] = target: T2, Human TDAG8 (Homo sapiens, UniProt Q8IYL9); test: cAMP formation assay, TDAG8; assay type: cell-based; conditions: TDAG8
T2 construct: His; expressed in transfected cells; host or cells: CCL39 (cAMP formation); CCL39 CRE-luc (luciferase reporter)
Protocol: (§1) Stable cell lines expressing TDAG8 are generated in either CCL39 cells or in CCL39 CRE-luc cells which stably express a cAMP-dependent luciferase reporter to detect changes in cAMP in response to ligand. Stable cell lines are generated In the above cell lines by transfecting the TDAG8 cDNA expression construct using Effectene (Qiagen, Basel, Switzerland) according to the manufacturers protocol. Transfected cells are selected in the presence of 400 μg/ml of G418. After 3 weeks of antibiotic selection, individual clones are picked and expanded for further analysis.

Human GPR4 [5] = target: T3, Human GPR4 (Homo sapiens, UniProt P46093); test: cAMP formation assay, GPR4; assay type: cell-based; conditions: GPR4
T3 construct: Human GPR4 is amplified from genomic DNA using primers GPR4F and GPR4R; expressed in transfected cells; host or cells: HEK293 (transient)
Protocol: (§2) Human GPR4 is amplified from genomic DNA using primers GPR4F and GPR4R (5′ CACC ATGGGCAACCACACGTGGGAGGGCTGC 3′ and 5′ TCATTGTGCTGGCGGCAGCATCTTCAGCTGCA 3′ respectively). The PCR reaction mixture contains 0.2 mM dNTPs, 1×PCR buffer containing 1.5 mM MgCl2, 0.5 Units Taq DNA polymerase, 40 pmol each primer and sterile water in a total volume of 50 μl. The template for this reaction is human genomic DNA (Promega, Southampton, UK). PCR is performed using a Biometra T3 Thermocycler using the following cycling conditions: Denaturation at 95° C. for 2 min followed by 35 cycles of denaturation at 95° C. for 15s, annealing at 60° C. for 15 s, and extension at 72° C. for 1 min. A final extension at 72° C. is performed for 7 min. The 1.1 kb PCR product is purified and cloned pcDNA3.1 DN5-His-TOPO (Invitrogen, Paisley, UK).

Human GPR4 [6] = target: T4, Human GPR4 (Homo sapiens, UniProt P46093, E51Q/F19H/F93P/Q349E); test: cAMP formation assay, GPR4; assay type: cell-based
T4 construct: Human GPR4 is amplified from genomic DNA using primers GPR4F and GPR4R; expressed in transfected cells; host or cells: HEK293 (transient)
Protocol: as §2

[7] = test system: forskolin-stimulated adenylyl cyclase; test: Forskolin-stimulated adenylyl cyclase in other cell systems; assay type: cell-based
Human TDAG8 [8] = target: T5, Human TDAG8 (Homo sapiens, UniProt Q8IYL9, A43P/F130I/N97L/Q180E/W80T); test: cAMP luciferase reporter assay, TDAG8 in CCL39 CRE-luc cells; assay type: cell-based; conditions: CCL39 CRE-luc cells stably expressing the receptor; mean+/-sem, N=7
T5 construct: His; expressed in transfected cells; host or cells: CCL39 (cAMP formation); CCL39 CRE-luc (luciferase reporter)
Protocol: as §1
Cells co-expressing TDAG8 and a cAMP luciferase reporter, as described in Example 8, are plated at 10-20,000 cells per well in white 96 well plates. The day before performing the assay the medium is changed for serum-free DMEM and the cells are incubated overnight at 37° C. in the presence of 5% CO2. […] 100 μl of the appropriate HBS buffer containing the to be tested compound (e.g. from any in-house or commercially available compound library) are then added on the cells. […] Agonists in the assay produce an increase in luminescence whereas antagonists produce a decrease in the luminescence. E.g. antagonists are characterised in the assay by a decrease in luminescence signal compared to the no compound control and e.g. in acidic pH buffer at pH 6.8 or pH 7.0 or at half-maximal activation of human TDAG8. […]

Human TDAG8 [9] = target: T5, Human TDAG8; test: cAMP formation assay, TDAG8; assay type: cell-based; conditions: CCL39 cells stably expressing the receptor; mean+/-sem, N=6
Protocol: as §1

OGR1 [10] = target: T1, OGR1; test: Cytoplasmic calcium transients (Fluo-3, fluorescence-imaging plate reader), CCL39 cells transfected with OGR1; assay type: cell-based; conditions: shift of extracellular pH from pH 7.6; mean+/-sem, N=3
Protocol: Method: Cytoplasmic calcium transients are recorded using the calcium indicator Fluo-3 and a fluorescence-imaging plate reader (Molecular Devices/BucherBiotech, Basel, Switzerland).
CCL39 cells transfected with OGR1 are loaded with the acetoxymethylester of the dye (2 μg/ml) for 1 h at 37° C. in full medium containing 5 mM probenicide to inhibit the multidrug resistance transporter. […] To identify receptor antagonists, test compounds are added during the last 15 minutes of this incubation. After transfer to the reader a baseline is recorded (Fb), and cells are then stimulated by addition of an appropriate amount of stronger buffer (20 mM HEPES, pH 6), inducing acidification.
Alternatively, test compounds are added at this stage to identify agonistic molecules. The fluorescence readout F is normalised calculating F′=(F−Fb)/Fb.
Target sequence in this assay (Q15743 whole entry T18I/I19T): as the sequence (Q15743 whole entry) above, with T18I, I19T counted along it

T5 sequence (Q8IYL9 whole entry A43P/W80T/N97L/F130I/Q180E): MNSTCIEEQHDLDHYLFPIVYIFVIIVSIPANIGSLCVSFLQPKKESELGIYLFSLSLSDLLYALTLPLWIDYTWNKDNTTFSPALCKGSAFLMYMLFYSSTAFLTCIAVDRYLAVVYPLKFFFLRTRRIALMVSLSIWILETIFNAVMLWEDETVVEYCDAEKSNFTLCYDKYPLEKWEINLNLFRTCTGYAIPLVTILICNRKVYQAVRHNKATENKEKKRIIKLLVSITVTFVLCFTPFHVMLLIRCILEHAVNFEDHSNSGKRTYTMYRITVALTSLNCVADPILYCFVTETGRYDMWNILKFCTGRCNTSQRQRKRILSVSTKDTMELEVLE
T4 sequence (P46093 whole entry F19H/E51Q/F93P/Q349E): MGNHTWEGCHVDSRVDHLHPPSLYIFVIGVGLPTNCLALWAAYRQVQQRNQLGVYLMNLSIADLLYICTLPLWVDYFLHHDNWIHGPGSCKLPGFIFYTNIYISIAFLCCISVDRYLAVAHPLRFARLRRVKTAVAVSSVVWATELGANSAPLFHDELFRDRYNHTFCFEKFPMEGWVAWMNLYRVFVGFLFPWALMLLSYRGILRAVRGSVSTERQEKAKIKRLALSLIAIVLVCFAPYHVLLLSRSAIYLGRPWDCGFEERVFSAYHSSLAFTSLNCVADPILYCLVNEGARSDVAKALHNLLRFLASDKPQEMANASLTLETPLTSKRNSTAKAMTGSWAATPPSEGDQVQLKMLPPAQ
T2 sequence (Q8IYL9 whole entry A43P/W80T/N97L/F130I/Q180E): as the sequence (Q8IYL9 whole entry A43P/W80T/N97L/F130I/Q180E) above
T3 sequence (P46093 whole entry F19H/E51Q/F93P/Q349E): as the sequence (P46093 whole entry F19H/E51Q/F93P/Q349E) above

Molecule: [Cu+2] [Cu^2+]
- Effect on pH-stimulated IP formation ([1]; PTX pretreatment, or micromolar concentrations of copper ions): inhibited
- Effect on thrombin-stimulated IP formation [2]: without effect
- Inhibition of OGR1-dependent IP formation (OGR1 [3]): strongly Inhibit

Molecule: CCCCCCCCCCCCC/C=C/[C@@H](O)[C@@H](N)CO[C@@H]1O[C@H](CO)[C@H](O)[C@H](O)[C@H]1O [Psychosine]
- Activation of cAMP formation on its own (Human TDAG8 [4]): does not activate cAMP formation on its own

Molecule: CCCCCCCCCCCCC/C=C/[C@@H](O)[C@@H](N)COP(=O)([O-])OCC[N+](C)(C)C [SPC]
- Activation of cAMP formation on its own (Human GPR4 [5]): does not activate cAMP formation on its own
- Effect on pH-dependent stimulation of cAMP formation (Human GPR4 [6]; GPR4): does not modulate pH-dependent stimulation
- Effect on forskolin-stimulated adenylyl cyclase [7]: inhibiting forskolin-stimulated adenylyl cyclase
- Effect on pH-dependent stimulation of IP formation (OGR1 [3]; CCL39 cells expressing OGR1): does not affect pH-dependent stimulation of IP formation
- Stimulation of OGR1 (IP formation) (OGR1 [3]; CCL39 cells expressing OGR1): does not stimulate the receptor

Molecule: [Zn+2] [Zn^2+]
- Effect on thrombin-stimulated IP formation [2]: partial inhibition
- Inhibition of OGR1-dependent IP formation (OGR1 [3]): strongly Inhibit

Molecule: [H+] [protons]
- Half-maximal activation of luciferase induction by human TDAG8 (Human TDAG8 [8]): 7.28+/−0.02 pH
- Half-maximal activation of cAMP formation by GPR4 (Human GPR4 [6]; transiently transfected HEK293 cells, mean+/-sem, N=6): 7.55+/−0.02 pH
- Half-maximal activation of cAMP formation by TDAG8 (Human TDAG8 [9]): 7.15+/−0.02 pH
- Halfmaximal activation of IP formation ([1]; mean+/-sem, N=5): 7.46+/−0.01 pH
- Half-maximal activation (intracellular calcium response) (OGR1 [10]): 7.20+/−0.04 pH
- Half-maximal activation of the receptor (IP formation) (OGR1 [3]; OGR1 expressed in CCL39 hamster fibroblasts, mean+/-sem, N=12, pH referenced to room temperature): 7.48+/−0.04 pH
- Hill coefficient of activation (OGR1 [3]; OGR1 in CCL39 hamster fibroblasts, IP formation): > 2
- Half-maximal activation of IP formation (OGR1 [3]; transiently transfected HEK cells, mean+/-sem, N=4): 7.38+/−0.04 pH

Molecule: thrombin: bovine thrombin, activates endogenous receptors in CCL39 cells
- pH modulation of the response to the receptor agonist (IP formation) ([2]; range of pH 7-8): not positively modulated
